How the values were obtained:
Barnyardgrass = test: Herbicidal activity test, foliage treatment; format: in vivo, Echinochloa crus-galli; design: key: 0: situations in which the condition of sprouting or vegetation at the time of examination of the plant utilized for the test was compared with and showed totally or substantially no difference with that of the untreated application; 10: situations in which the plant completely withered or the sprouting or vegetation was completely suppressed; conditions: sprayed onto the foliage of plants cultivated 10 days, investigated after 16 days in a greenhouse
Experimental: (§1) Soil was packed into a round plastic pot having a diameter of 10 cm and depth of 10 cm. Barnyardgrass, Blackgrass, Ivyleaf morningglory were seeded and cultivated in a greenhouse for 10 days. Five (5) parts of the test compound, 6 parts of sorpol3005X (Toho Chemical Company) and 89 parts of xylene were well mixed to produce an emulsion. A certain amount thereof was diluted with water containing 0.1% (v/v) of a sticking agent at a proportion of 1000 L for 1 hectare and was spread uniformly with a spray-gun onto the all sides of the foliage from above the plant cultivated in the above pot. After cultivating the plants for 16 days in a greenhouse, the herbicidal activity of the test compound was investigated.
(§2) In the above Tables 3 and 4, the strength of the herbicidal activity is shown stepwise as 0, 1, 2, 3, 4, 5, 6, 7, 8, 9, and 10.

Ivyleaf morningglory = test: Herbicidal activity test, foliage treatment; format: in vivo, Ipomoea hederacea; design: key: 0: situations in which the condition of sprouting or vegetation at the time of examination of the plant utilized for the test was compared with and showed totally or substantially no difference with that of the untreated application; 10: situations in which the plant completely withered or the sprouting or vegetation was completely suppressed; conditions: sprayed onto the foliage of plants cultivated 10 days, investigated after 16 days in a greenhouse
Experimental: as §1, §2

[1] = test system: present invention protein (A22); test: Detection of the ability to convert compound (II) to compound (III), E. coli pKSN1558BF extract; format: in vitro ADME, Streptomyces pallidus IFO 13434T; conditions: 3 ppm of compound (II) labeled with 14C, components A, B, 10 minutes at 30° C.
Experimental: Reaction solutions of 30 μl were prepared and maintained for 10 minutes at 30° C. The reaction solutions consisted of a 0.1M potassium phosphate buffer (pH7.0) containing 3 ppm of compound (II) labeled with ^14C, 2 mM of β-NADPH (hereinafter, referred to as “component A”) (Oriental Yeast Company), 2 mg/ml of a ferredoxin derived from spinach (hereinafter referred to as “component B”) (Sigma Company), 0.1 U/ml of ferredoxin reductase (hereinafter, referred to as “component C”) (Sigma Company) and 23 μl of the supernatant fraction recovered in Example 32(2). Similarly to Example 4(3), the reaction solutions after the maintenance were extracted with ethyl acetate and the extracted layers were TLC analyzed. […] A spot corresponding to compound (III) was detected from the reaction solution containing E. coli pKSN849AF extract. In contrast, such a spot was not detected from the reaction solution containing E. coli pKSN2 extract.
Similarly to Example 32(3), reaction solutions of 30 μl were prepared and maintained for 10 minutes at 30° C. […] The reaction solutions after the maintenance were extracted with ethyl acetate and the extracted layers were TLC analyzed. […] A spot corresponding to compound (III) was detected from the reaction solution containing E. coli pKSN1558BF extract. In contrast, such a spot was not detected from the reaction solution containing E. coli pKSN2 extract.

[2] = test system: present invention protein (A24); test: Metabolism of compounds by the present invention protein (A24), reaction solution, HPLC; format: in vitro ADME, Streptomyces rutgersensis IFO 15875T; conditions: 12.5 ppm of compound, components A, B, C, 20 μl supernatant fraction of Example 65(2), 30° C. for 10 minutes

Q: For `C[C@@H](Oc1cc(-n2c(=O)cc(C(F)(F)F)n(C)c2=O)c(F)cc1Cl)C(=O)O` [compound (II)], which “Herbicidal Activity Barnyardgrass” value (Barnyardgrass; 125 g/ha) is on record?
A: The value was 10.

Q: What about the “Herbicidal Activity Barnyardgrass” value (Barnyardgrass; 500 g/ha) of the same molecule?
A: The value was 10.

Q: And the “Herbicidal Activity Ivyleaf Morningglory” value (Ivyleaf morningglory; 125 g/ha)?
A: The value was 10.

Q: And the “Herbicidal Activity Ivyleaf Morningglory” value (Ivyleaf morningglory; 500 g/ha)?
A: Its value is 10.

Q: What about the “spot corresponding to compound (III) labeled with 14C (TLC)” value [1] of the same molecule?
A: The value was “detected”.

Q: Which “concentration of the compound detected from metabolism solution (A24) compared to control solution (A24)” value [2] does the source give for `Cn1c(C(F)(F)F)cc(=O)n(-c2cc(Oc3cccnc3OCC(=O)O)c(Cl)cc2F)c1=O` [compound (XII)] here?
A: Its value is “lower”.

Source: patent US8293979B2, “Weed controller metabolism proteins, genes, thereof and use of the same” (Sumitomo Chemical Company, Limited, priority 2001, dated 2012)
